Legend:
[1] = target: His6-avi-MBP-tagged POLE2; assay: Single-point nHU-MS with recombinant His6-avi-MBP-POLE2 bait, Jurkat extract; assay type: binding, human; settings: significant apparent affinity of endogenous prey protein for POLE2 bait; single-point nHU-MS; Figure S11
Excerpt: So far, our study only focused on a few hand-picked NPF motifs and studied them as short synthetic peptides. However, many other proteins may be present in the proteome that could bind to POLE2 and their putative NPF motifs are embedded in their natural structures that can greatly affect their binding properties. To investigate interactions between POLE2 and intact, full length proteins proteome-wide, we used nHU-MS experiments with recombinant His6-avi-MBP-tagged POLE2 as bait and purified His6-avi-MBP as a control. Even though we are aware that this recombinant POLE2 may bind to NPF motifs with a somewhat altered affinity, we assumed that this would affect all NPF motif-mediated interactions equally, allowing an unbiased affinity ranking of all identified partners. Single point nHU measurements were performed at 26 μM POLE2 concentration and the recovered supernatant was measured by label free proteomic MS measurements (Fig. 3A, Supplementary Figs. 8A, 9, Supplementary Data 1).
Single-point nHU experiments with protein baits were carried out nearly identically with two key modifications. First, the resin saturation step was carried out by mixing 50 μl streptavidin resin with 0.5−1 ml 50 μM biotinylated protein solution and the mixture was incubated for 1.5 h at 4 °C with constant agitation. Second, instead of using estimated bait concentrations, we measured it experimentally. An extra aliquot of resin stock was prepared alongside the nHU samples that were identically processed that were used to eluate the immobilized proteins under harsh conditions, in order to experimentally quantify the Cbait by using densitometry of Coomassie stained SDS-PAGE that included a protein calibration series. For this, 50 μl bait-saturated resin aliquots were mixed with 200 μl 4x Laemmli Sample Buffer (120 mM Tris-HCl pH 7, 8% SDS, 100 mM DTT, 32% glycerol, 0.004% bromphenol blue, 1% β-mercaptoethanol), instead of cell extract. After 15 min incubation at 95 °C, these samples were analyzed by SDS-PAGE using protein calibration standard, made from recombinant MBP. Densitometry was carried out after Coomassie staining on raw Tif images by using Fiji ImageJ 1.53c and experimental bait concentration were determined by adjusting for molecular weight differences between MBP and MBP-POLE2 constructs.
Samples were digested overnight at 37 °C.

PPP2R2A = target: T1, PPP2R2A (Homo sapiens, UniProt P63151); assay: nHU-MS peptide bait, prey PPP2R2A; settings: FigureS2 Volcano
T1 sequence (P63151 1-447): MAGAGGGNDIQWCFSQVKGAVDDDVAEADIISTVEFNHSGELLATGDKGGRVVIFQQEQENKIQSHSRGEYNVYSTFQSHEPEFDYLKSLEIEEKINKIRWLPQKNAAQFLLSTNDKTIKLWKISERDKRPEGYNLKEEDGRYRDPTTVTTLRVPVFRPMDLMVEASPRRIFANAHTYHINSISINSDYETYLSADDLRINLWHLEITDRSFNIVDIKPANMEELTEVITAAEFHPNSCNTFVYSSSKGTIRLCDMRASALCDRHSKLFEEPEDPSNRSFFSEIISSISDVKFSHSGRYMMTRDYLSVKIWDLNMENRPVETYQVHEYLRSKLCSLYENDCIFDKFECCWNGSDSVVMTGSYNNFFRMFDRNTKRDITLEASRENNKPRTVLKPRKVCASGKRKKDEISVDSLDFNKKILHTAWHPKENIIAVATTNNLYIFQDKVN

Which results are given for TSETSK [SYNJ1]?
pKapp_sign [1]: 4.4418; -log10P (PPP2R2A): 6.763; log2FC (PPP2R2A): -0.4164

— paper PMC12808100, “The non-catalytic DNA polymerase ε subunit is an NPF motif recognition protein” (Nature Communications, 2025)
